Source: patent US20080194574A1, “Pyrazine Derivatives As Effective Compounds Against Infectious Diseases” (AXXIMA PHARMACEUTICALS AG, priority 2003, published 2008)

Target: T1, viral kinase pUL-97 (Human cytomegalovirus, UniProt P16788)
T1 construct: The pUL-97 gene was cloned into a baculovirus vector; GST (glutathione S-transferase) (N); made in house; host or cells: Sf9 insect cells, baculovirus
Experiment: UL97 kinase assay on Immobilon plate
Format: biochemical
Conditions: inhibition of UL 97 kinase activity; class by IC50 / % inhibition at 10 μM or 100 μM; read-out: Activity Class [A, B, C]
How it was run: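 Compound was titrated into a radiometric reaction of Sf9-expressed GST-UL97 kinase, incubated 1 h at 30 °C in Tris-HCl pH 7.5/MnCl2/DTT buffer before EDTA stop. MBP substrate and ATP (3 μM in the added assay buffer) were supplied with γ-[33P]ATP. Labelled product bound to Immobilon filter was washed and counted by scintillation.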

T1 sequence (P16788 whole entry): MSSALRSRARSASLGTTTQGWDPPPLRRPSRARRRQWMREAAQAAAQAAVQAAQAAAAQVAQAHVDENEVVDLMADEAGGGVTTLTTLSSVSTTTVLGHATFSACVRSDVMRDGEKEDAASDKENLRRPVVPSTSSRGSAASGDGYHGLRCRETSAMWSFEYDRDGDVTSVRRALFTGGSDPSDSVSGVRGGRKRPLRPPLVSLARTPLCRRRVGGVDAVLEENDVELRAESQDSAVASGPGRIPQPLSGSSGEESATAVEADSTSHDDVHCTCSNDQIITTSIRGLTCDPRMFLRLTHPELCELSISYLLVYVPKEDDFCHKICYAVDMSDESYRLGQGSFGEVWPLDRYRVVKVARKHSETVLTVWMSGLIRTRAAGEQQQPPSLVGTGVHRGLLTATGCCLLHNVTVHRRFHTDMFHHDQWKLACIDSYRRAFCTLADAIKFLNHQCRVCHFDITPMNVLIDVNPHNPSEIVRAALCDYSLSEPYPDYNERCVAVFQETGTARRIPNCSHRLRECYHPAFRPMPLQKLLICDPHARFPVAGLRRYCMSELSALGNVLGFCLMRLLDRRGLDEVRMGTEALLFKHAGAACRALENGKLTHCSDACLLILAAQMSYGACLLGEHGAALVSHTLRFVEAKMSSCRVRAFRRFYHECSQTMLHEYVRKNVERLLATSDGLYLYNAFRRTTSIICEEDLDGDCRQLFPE

IC50 | SMILES
10 to 100 µM | Cc1cc(C)cc(-c2cncc(N3CCN(c4cnccn4)CC3)n2)c1 [compound 344, 6-(3,5-Dimethyl-phenyl)-2′,3′,5′,6′-tetrahydro-[2,1′;4′,2″]terpyrazine]
1 to 10 µM | FC(F)(F)c1ccc(-c2cncc(N3CCN(c4cnccn4)CC3)n2)cc1 [compound 345, 6-(4-Trifluoromethyl-phenyl)-2′,3′,5′,6′-tetrahydro-[2,1′;4′,2″]terpyrazine]
10 to 100 µM | Cc1cccc(N2CCN(c3cncc(-c4ccc5ccccc5c4)n3)CC2C)c1 (centres unmarked) [compound 347, 3-Methyl-6′-naphthalen-2-yl-4-m-tolyl-3,4,5,6-tetrahydro-2H-[1,2′]bipyrazinyl]
1 to 10 µM | c1ccc(N2CCN(c3cncc(-c4ccsc4)n3)CC2)nc1 [compound 350, 4-Pyridin-2-yl-6′-thiophen-3-yl-3,4,5,6-tetrahydro-2H-[1,2′]bipyrazinyl]
10 to 100 µM | FC(F)(F)c1ccc(N2CCN(c3cncc(-c4ccoc4)n3)CC2)cc1 [compound 353, 6′-Furan-3-yl-4-(4-trifluoromethyl-phenyl)-3,4,5,6-tetrahydro-2H-[1,2′]bipyrazinyl]
10 to 100 µM | Cc1ccc(N2CCN(c3cncc(-c4ccc(C(F)(F)F)cc4)n3)CC2)c(C)c1 [compound 354, 4-(2,4-Dimethyl-phenyl)-6′-(4-trifluoromethyl-phenyl)-3,4,5,6-tetrahydro-2H-[1,2′]bipyrazinyl]
1 to 10 µM | COc1ccc(N2CCN(c3cncc(-c4ccc(C(F)(F)F)cc4)n3)CC2)cc1 [compound 355, 4-(4-Methoxy-phenyl)-6′-(4-trifluoromethyl-phenyl)-3,4,5,6-tetrahydro-2H-[1,2′]bipyrazinyl]
10 to 100 µM | CN(C)c1ccc(-c2cncc(N3CCN(c4ccc(Cl)c(Cl)c4)CC3)n2)cc1 [compound 357, {4-[4-(3,4-Dichloro-phenyl)-3,4,5,6-tetrahydro-2H-[1,2′]bipyrazinyl-6′-yl]-phenyl}-dimethyl-amine]
10 to 100 µM | Cc1cc(C)cc(-c2cncc(N3CCN(c4ccc(Cl)c(Cl)c4)CC3)n2)c1 [compound 358, 4-(3,4-Dichloro-phenyl)-6′-(3,5-dimethyl-phenyl)-3,4,5,6-tetrahydro-2H-[1,2′]bipyrazinyl]
1 to 10 µM | COc1ccc(-c2cncc(N3CCC(c4ccccc4)CC3)n2)cc1OC [compound 360, 2-(3,4-Dimethoxy-phenyl)-6-(4-Phenyl-piperidin-1-yl)-pyrazine]

Second part, the compound before the results:

SMILES | IC50
Cc1cccc(N2CCN(c3cncc(-c4ccoc4)n3)CC2)c1C [compound 346, 4-(2,3-Dimethyl-phenyl)-6′-furan-3-yl-3,4,5,6-tetrahydro-2H-[1,2′]bipyrazinyl] | 10 to 100 µM
Clc1ccc(N2CCN(c3cncc(-c4ccc5ccccc5c4)n3)CC2)cc1 [compound 348, 4-(4-Chloro-phenyl)-6′-naphthalen-2-yl-3,4,5,6-tetrahydro-2H-[1,2′]bipyrazinyl] | 1 to 10 µM
Clc1ccc(N2CCN(c3cncc(-c4ccoc4)n3)CC2)cc1 [compound 349, 4-(4-Chloro-phenyl)-6′-furan-3-yl-3,4,5,6-tetrahydro-2H-[1,2′]bipyrazinyl] | 10 to 100 µM
OCc1ccc(-c2cncc(N3CCN(c4ccccn4)CC3)n2)cc1 [compound 351, [4-(4-Pyridin-2-yl-3,4,5,6-tetrahydro-2H-[1,2′]bipyrazinyl-6′-yl)-phenyl]-methanol] | 1 to 10 µM
FC(F)(F)c1ccc(N2CCN(c3cncc(-c4ccc5ccccc5c4)n3)CC2)cc1 [compound 352, 6′-Naphthalen-2-yl-4-(4-trifluoromethyl-phenyl)-3,4,5,6-tetrahydro-2H-[1,2′]bipyrazinyl] | 1 to 10 µM
COc1cccc(N2CCN(c3cncc(-c4ccc(C(F)(F)F)cc4)n3)CC2)c1 [compound 356, 4-(3-Methoxy-phenyl)-6′-(4-trifluoromethyl-phenyl)-3,4,5,6-tetrahydro-2H-[1,2′]bipyrazinyl] | 1 to 10 µM
CSc1ccc(-c2cncc(N3CCN(c4ccc(C)c(C)c4)CC3)n2)cc1 [compound 359, 4-(3,4-Dimethyl-phenyl)-6′-(4-methylsulfanyl-phenyl)-3,4,5,6-tetrahydro-2H-[1,2′]bipyrazinyl] | 1 to 10 µM
